Experimental data from EPA's ToxRefDB 2.

Columns and labels:
rat [1] = settings: Carcinogenicity, fischer, Oral, Feed, dose end: 105 week, group: systemic
rat [2] = settings: Subchronic oral toxicity in rodents, fischer, Feed, dose end: 13 week, group: systemic
mouse [3] = settings: Carcinogenicity, b6c3f1, Oral, Feed, dose end: 105 week, group: systemic
mouse [4] = settings: Subchronic oral toxicity in rodents, b6c3f1, Feed, dose end: 13 week, group: systemic
rat [5] = settings: Subchronic oral toxicity in rodents, Sprague Dawley, Feed, dose end: 14 week, group: systemic
rat [6] = settings: Multigenerational reproductive toxicity study, sprague dawley, Oral, Gavage/Intubation, dose end: 2 generation
rat [7] = settings: Developmental neurotoxicity study, sprague dawley, Oral, Gavage/Intubation, dose end: 72 PND, group: cannot be grouped
rat [8] = settings: Combined chronic toxicity/carcinogenicity, Crl: CD (SD) IGS BR, Oral, Feed, dose end: 104 week, group: systemic
rat [9] = settings: Subchronic oral toxicity in rodents, sprague dawley, Gavage/Intubation, dose end: 90 day, group: systemic
rat [10] = settings: Prenatal developmental toxicity study, sprague dawley, Oral, Gavage/Intubation, dose end: 17 GD
rabbit [11] = settings: Prenatal developmental toxicity study, new zealand white, Oral, Gavage/Intubation, dose end: 18 GD, group: maternal
rat [12] = settings: Combined chronic toxicity/carcinogenicity, sprague dawley, Oral, Feed, dose end: 104 week, group: systemic
mouse [13] = settings: Subchronic oral toxicity in rodents, cd1, Feed, dose end: 90 day, group: systemic
rat [14] = settings: Subchronic oral toxicity in rodents, sprague dawley, Feed, dose end: 90 day, group: systemic, systemic / in life observation / body weight / body weight gain + systemic / in life observation / food consumption / food consumption + …
mouse [15] = settings: Carcinogenicity, cd1, Oral, Feed, dose end: 78 week, group: systemic
dog = settings: Chronic toxicity; beagle; Oral; Capsule; dose end: 12 month; group: systemic; systemic / clinical chemistry / alkaline phosphatase (alp/alk) / alkaline phosphatase (alp/alk) + systemic / organ weight / liver / absolute…
rabbit [16] = settings: Prenatal developmental toxicity study, other, Oral, Gavage/Intubation, dose end: 27 GD
rat [17] = settings: Multigenerational reproductive toxicity study, sprague dawley, Oral, Feed, dose end: 2 generation
[18] = systemic / pathology microscopic / blood / leukemia mononuclear + systemic / pathology microscopic / esophagus / squamous cell papilloma + …
[19] = systemic / pathology microscopic / mammary gland / fibroadenoma + systemic / pathology microscopic / oral mucosa / squamous cell papilloma…
[20] = systemic / in life observation / body weight / body weight + systemic / in life observation / body weight / body weight gain + systemic / …
[21] = systemic / in life observation / body weight / body weight gain
[22] = systemic / pathology microscopic / blood vessel / [other] + systemic / in life observation / clinical signs / [other] + systemic / in life …
[23] = systemic / in life observation / food consumption / food consumption + systemic / organ weight / brain / absolute + systemic / organ weight…
[24] = systemic / clinical chemistry / aspartate aminotransferase (ast/sgot) / aspartate aminotransferase (ast/sgot) + systemic / clinical …
[25] = group: offspring, developmental / developmental landmark / eye opening / eye opening + developmental / developmental landmark / pinna unfolding / pinna …
[26] = group: parental, systemic / in life observation / body weight / body weight + systemic / in life observation / body weight / body weight gain + systemic / in…
[27] = group: reproductive, reproductive / offspring survival early / litter viability other / total litter loss
[28] = group: reproductive, reproductive / reproductive performance / gestational length / gestational length + reproductive / reproductive performance / implantations…
[29] = systemic / in life observation / body weight / body weight + systemic / in life observation / body weight / body weight gain + systemic / in…
[30] = systemic / in life observation / body weight / body weight + systemic / organ weight / liver / relative to body weight + systemic / …
[31] = systemic / pathology microscopic / stomach / acanthosis + systemic / pathology microscopic / stomach / hyperkeratosis + systemic / clinical …
[32] = group: developmental, systemic / in life observation / body weight / fetal weight
[33] = group: maternal, systemic / in life observation / body weight / body weight gain + systemic / in life observation / food consumption / food consumption
[34] = systemic / in life observation / body weight / body weight + systemic / in life observation / clinical signs / soft stools + systemic / in …
[35] = systemic / pathology microscopic / mammary gland / adenoacanthoma
[36] = systemic / clinical chemistry / triglycerides / triglycerides
[37] = group: maternal, reproductive / reproductive performance / aborted / aborted + reproductive / reproductive performance / premature delivery / premature …
[38] = group: offspring, systemic / in life observation / body weight / offspring (pup) weight + systemic / in life observation / body weight / offspring (pup) …

SMILES: OCC(CO)(CBr)CBr [2,2-Bis(bromomethyl)-1,3-propanediol]
- LOAEL (rat [1]; [18]): > 430 mg/kg/day
- NOAEL (rat [1]; [18]): ≥ 430 mg/kg/day
- LEL (rat [1]; [19]): 100 mg/kg/day
- NEL (rat [1]; [19]): < 100 mg/kg/day
- LOAEL (rat [2]; [20]): 400 mg/kg/day
- NOAEL (rat [2]; [20]): 200 mg/kg/day
- LEL (rat [2]; [21]): 100 mg/kg/day
- NEL (rat [2]; [21]): < 100 mg/kg/day
- LEL (mouse [3]; [22]): 35 mg/kg/day
- NEL (mouse [3]; [22]): < 35 mg/kg/day
- LOAEL (mouse [3]; systemic / pathology microscopic / lung / hyperplasia): 80 mg/kg/day
- NOAEL (mouse [3]; systemic / pathology microscopic / lung / hyperplasia + systemic / pathology microscopic / blood vessel / [other] + systemic / pathology …): 40 mg/kg/day
- LOAEL (mouse [4]; [20]): 500 mg/kg/day
- NOAEL (mouse [4]; [20]): 200 mg/kg/day
- LEL (mouse [4]; [23]): 100 mg/kg/day
- NEL (mouse [4]; [23]): < 100 mg/kg/day

SMILES: O=S(=O)([O-])C(F)(F)C(F)(F)C(F)(F)C(F)(F)C(F)(F)C(F)(F)C(F)(F)C(F)(F)F.[K+] [PFOS-K]
- NEL (rat [5]; systemic / clinical chemistry / alanine aminotransferase (alt/sgpt) / alanine aminotransferase (alt/sgpt) + systemic / clinical chemistry / …): 0.1 mg/kg/day
- LOAEL (rat [5]; [24]): > 1 mg/kg/day
- NOAEL (rat [5]; [24]): ≥ 1 mg/kg/day
- LEL (rat [5]; systemic / pathology microscopic / liver / hypertrophy + systemic / pathology microscopic / liver / vacuolization): 0.25 mg/kg/day
- LEL (rat [6]; [25]): 1.6 mg/kg/day
- LOAEL (rat [6]; [25]): > 3.2 mg/kg/day
- NEL (rat [6]; [25]): 0.4 mg/kg/day
- NOAEL (rat [6]; [25]): ≥ 3.2 mg/kg/day
- LOAEL (rat [6]; [26]): > 3.2 mg/kg/day
- NEL (rat [6]; [26]): 0.1 mg/kg/day
- NOAEL (rat [6]; [26]): ≥ 3.2 mg/kg/day
- LEL (rat [6]; group: parental, systemic / in life observation / body weight / body weight gain): 0.4 mg/kg/day
- LEL (rat [6]; [27]): 1.6 mg/kg/day
- NEL (rat [6]; [27]): 0.4 mg/kg/day
- LOAEL (rat [6]; [28]): > 3.2 mg/kg/day
- NOAEL (rat [6]; [28]): ≥ 3.2 mg/kg/day
- LOAEL (rat [7]; systemic / in life observation / body weight / body weight): 1 mg/kg/day
- LEL (rat [7]; [29]): 1 mg/kg/day
- NEL (rat [7]; [29]): 0.3 mg/kg/day
- NOAEL (rat [7]; [29]): 0.3 mg/kg/day
- LOAEL (rat [8]; [30]): > 1 mg/kg/day
- NOAEL (rat [8]; [30]): ≥ 1 mg/kg/day
- NEL (rat [8]; systemic / pathology microscopic / liver / adenoma + systemic / in life observation / body weight / body weight + systemic / organ weight / …): 0.025 mg/kg/day
- LEL (rat [8]; systemic / pathology microscopic / liver / degeneration + systemic / pathology microscopic / liver / eosinophilic focus): 0.1 mg/kg/day

SMILES: C1CN(CN2CCOCC2)CCO1 [4,4-Methylenedimorpholine]
- LOAEL (rat [9]; systemic / pathology microscopic / stomach / acanthosis + systemic / pathology microscopic / stomach / hyperkeratosis): 50 mg/kg/day
- NEL (rat [9]; [31]): 15 mg/kg/day
- NOAEL (rat [9]; [31]): 15 mg/kg/day
- LEL (rat [9]; systemic / pathology microscopic / stomach / acanthosis + systemic / pathology microscopic / stomach / hyperkeratosis + systemic / in life …): 50 mg/kg/day

SMILES: CC(C)n1cc2c3c(cccc31)[C@H]1C[C@@H](C(=O)NC3CCCCC3)CN(C)[C@@H]1C2 [Amesergide]
- LEL (rat [10]; [32]): 30 mg/kg/day
- LOAEL (rat [10]; [32]): > 30 mg/kg/day
- NEL (rat [10]; [32]): 10 mg/kg/day
- NOAEL (rat [10]; [32]): ≥ 30 mg/kg/day
- LEL (rat [10]; [33]): 30 mg/kg/day
- LOAEL (rat [10]; [33]): > 30 mg/kg/day
- NEL (rat [10]; [33]): 10 mg/kg/day
- NOAEL (rat [10]; [33]): ≥ 30 mg/kg/day
- LOAEL (rabbit [11]; [34]): > 15 mg/kg/day
- NEL (rabbit [11]; [34]): 0.2 mg/kg/day
- NOAEL (rabbit [11]; [34]): ≥ 15 mg/kg/day
- LEL (rabbit [11]; systemic / in life observation / food consumption / food consumption): 2 mg/kg/day

SMILES: FC(F)(F)c1ccc(OCCCOc2c(Cl)cc(OCC=C(Cl)Cl)cc2Cl)nc1 [Pyridalyl]
- LOAEL (rat [12]; [29]): 17.1 mg/kg/day
- NOAEL (rat [12]; [20]): 3.4 mg/kg/day
- LEL (rat [12]; [35]): 1.23 mg/kg/day
- NEL (rat [12]; [35]): < 1.23 mg/kg/day
- LEL (mouse [13]; [36]): 9.5 mg/kg/day
- NEL (mouse [13]; [36]): < 9.5 mg/kg/day
- LOAEL (mouse [13]; [20]): 378 mg/kg/day
- NOAEL (mouse [13]; [20]): 81.7 mg/kg/day
- LEL (rat [14]): 56 mg/kg/day
- LOAEL (rat [14]): 56 mg/kg/day
- NEL (rat [14]): 5.56 mg/kg/day
- NOAEL (rat [14]): 5.56 mg/kg/day
- LEL (mouse [15]; systemic / hematology / mean corpuscular (cell) volume (mcv) / mean corpuscular (cell) volume (mcv)): 5.04 mg/kg/day
- NEL (mouse [15]; systemic / hematology / mean corpuscular (cell) volume (mcv) / mean corpuscular (cell) volume (mcv) + systemic / hematology / lymphocyte / …): 1.57 mg/kg/day
- LOAEL (mouse [15]; [29]): 99 mg/kg/day
- NOAEL (mouse [15]; [29]): 4.78 mg/kg/day
- LEL (dog): 80 mg/kg/day
- LOAEL (dog): > 80 mg/kg/day
- NEL (dog): 20 mg/kg/day
- NOAEL (dog): ≥ 80 mg/kg/day
- LEL (rabbit [16]; [32]): 150 mg/kg/day
- LOAEL (rabbit [16]; [32]): 150 mg/kg/day
- NEL (rabbit [16]; [32]): 50 mg/kg/day
- NOAEL (rabbit [16]; [32]): 50 mg/kg/day
- LEL (rabbit [16]; [37]): 150 mg/kg/day
- LOAEL (rabbit [16]; [37]): 150 mg/kg/day
- NEL (rabbit [16]; [37]): 50 mg/kg/day
- NOAEL (rabbit [16]; [37]): 50 mg/kg/day
- LOAEL (rat [17]; [38]): 83.7 mg/kg/day
- NEL (rat [17]; [38]): 3.4 mg/kg/day
- NOAEL (rat [17]; [38]): 17 mg/kg/day
- LEL (rat [17]; group: offspring, systemic / organ weight / thymus / nos): 17 mg/kg/day
- LOAEL (rat [17]; [26]): 68.7 mg/kg/day
- NOAEL (rat [17]; [26]): 13.8 mg/kg/day
- LEL (rat [17]; group: parental, systemic / organ weight / testes / absolute): 17 mg/kg/day
- NEL (rat [17]; group: parental, systemic / organ weight / testes / absolute + systemic / in life observation / body weight / body weight + systemic / in life observation / …): 3.4 mg/kg/day
